From patent publication US9725459B2, “3-oxo-tetrahydro-furo[3,2-B]pyrrol-4(5H)-yl) derivatives I” (GRÜNENTHAL GMBH, priority 2014, dated 2017)
Read-outs that look alike come from different tables or passages of the source.

Key:
Format in all cases: biochemical
human cathepsin S (CatS) = human cathepsin S (CatS) (Homo sapiens (Human), UniProt P25774); test: CatS functional enzyme assay; conditions: for Selectivity Ki(hCatS)/Ki(hCatK): ratio Ki(hCatS)/Ki(hCatK); for Ki: read-out: hCatS, Ki
Procedure, shortened: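 Recombinant human enzymes were incubated 10 min at RT with AMC substrate: CatS 0.0007 mU/well with Z-VVR-AMC 5 µM; CatK 0.00175 mU/well with Z-FR-AMC 40 µM; CatL 0.000874 mU/well with Z-VVR-AMC 40 µM. Fluorescence gave IC50, converted to Ki by Cheng-Prusoff.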

human cathepsin K (CatK) = human cathepsin K (CatK) (Homo sapiens (Human), UniProt P43235); test: CatK functional enzyme assay; conditions: for Ki: recombinant human CatK, substrate Z-FR-AMC 40 μM, pH 5.5, Ki by Cheng Prusoff equation, read-out: hCatK, Ki
Procedure, shortened: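 Recombinant human enzymes in 50 mM NaOAc, 10 mM EDTA, 1 mM DTT, 0.01% Triton X-100, pH 5.5, 10 min at RT. CatK: 0.00175 mU/well with 40 μM Z-FR-AMC; CatL: 0.000874 mU/well with 40 μM Z-VVR-AMC. AMC fluorescence read; IC50 converted to Ki via Cheng–Prusoff.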

human cathepsin L (CatL) = human cathepsin L (CatL) (Homo sapiens (Human), UniProt P07711); test: CatL functional enzyme assay; conditions: read-out: hCatL, inhibition [%] at 31.6 μM
[1] = recombinant human CatS, substrate Z-VVR-AMC 5 μM, pH 6.5, Ki by Cheng Prusoff equation

human cathepsin S (CatS), sequence (P25774 115-331): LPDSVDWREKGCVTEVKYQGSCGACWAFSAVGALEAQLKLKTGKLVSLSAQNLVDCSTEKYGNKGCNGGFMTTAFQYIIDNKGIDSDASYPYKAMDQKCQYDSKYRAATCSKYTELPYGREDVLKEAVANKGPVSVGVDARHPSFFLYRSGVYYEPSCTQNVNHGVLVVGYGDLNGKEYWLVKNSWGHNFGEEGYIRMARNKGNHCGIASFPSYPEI
human cathepsin L (CatL), sequence (P07711 114-333): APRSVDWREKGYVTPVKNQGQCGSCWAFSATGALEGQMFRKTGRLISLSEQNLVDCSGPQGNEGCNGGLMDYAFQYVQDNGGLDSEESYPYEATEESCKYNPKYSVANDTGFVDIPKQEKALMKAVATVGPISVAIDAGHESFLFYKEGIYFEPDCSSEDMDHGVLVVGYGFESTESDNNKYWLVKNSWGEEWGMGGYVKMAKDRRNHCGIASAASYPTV
human cathepsin K (CatK), sequence (P43235 115-329): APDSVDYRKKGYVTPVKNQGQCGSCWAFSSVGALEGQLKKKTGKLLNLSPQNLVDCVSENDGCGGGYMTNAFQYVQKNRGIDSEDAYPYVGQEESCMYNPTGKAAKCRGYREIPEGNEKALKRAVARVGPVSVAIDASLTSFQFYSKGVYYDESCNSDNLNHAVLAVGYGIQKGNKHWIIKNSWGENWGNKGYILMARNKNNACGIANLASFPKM

| SMILES | Selectivity Ki(hCatS)/Ki(hCatK) (human cathepsin S (CatS)) | Ki (human cathepsin S (CatS); [1]) | Ki (human cathepsin K (CatK)) | inhibition at 31.6 µM (human cathepsin L (CatL)) | Ki (human cathepsin S (CatS)) | inhibition at 10 µM (human cathepsin S (CatS); read-out: hCatS, inhibition [%] at 10 μM) | inhibition at 10 µM (human cathepsin K (CatK); read-out: hCatK, inhibition [%] at 10 μM) |
| --- | --- | --- | --- | --- | --- | --- | --- |
| O=C(N[C@H](C(=O)N1C[C@H](Cl)[C@H]2OCC(=O)[C@H]21)C1CCCCC1)c1ccc(-c2cnccn2)o1 [Example 25, N-((S)-2-((3aS,6S,6aS)-6-chloro-3-oxotetrahydro-2H-furo[3,2-b]pyrrol-4(5H)-yl)-1-cyclohexyl-2-oxoethyl)-5-(pyrazin-2-yl)furan-2-carboxamide] | 5.4 | 833 nM | 153 nM | 20% | – | – | – |
| O=C(N[C@H](C(=O)N1C[C@H](Cl)[C@H]2OCC(=O)[C@H]21)C1CCCCC1)c1ccc(-c2ccc(Cl)nc2)s1 [Example 17, N-((S)-2-((3aS,6S,6aS)-6-chloro-3-oxotetrahydro-2H-furo[3,2-b]pyrrol-4(5H)-yl)-1-cyclohexyl-2-oxoethyl)-5-(6-chloropyridin-3-yl)thiophene-2-carboxamide] | 21.7 | 347 nM | 16 nM | 9% | – | – | – |
| O=C(N[C@H](C(=O)N1C[C@H](Cl)[C@H]2OCC(=O)[C@H]21)C1CCCCC1)c1ccc(-c2ccnc(C3CC3)c2)s1 [Example 66, N-((S)-2-((3aS,6S,6aS)-6-chloro-3-oxotetrahydro-2H-furo[3,2-b]pyrrol-4(5H)-yl)-1-cyclohexyl-2-oxoethyl)-5-(2-cyclopropylpyridin-4-yl)thiophene-2-carboxamide] | 5.0 | 34 nM | 7 nM | 3% | – | – | – |
| CS(=O)(=O)c1cnnc(-c2ccc(C(=O)N[C@H](C(=O)N3C[C@H](Cl)[C@H]4OCC(=O)[C@H]43)C3CCCCC3)s2)c1 [Example 78, N-((S)-2-((3aS,6S,6aS)-6-chloro-3-oxotetrahydro-2H-furo[3,2-b]pyrrol-4(5H)-yl)-1-cyclohexyl-2-oxoethyl)-5-(5-(methylsulfonyl)pyridazin-3-yl)thiophene-2-carboxamide] | 0.8 | 16 nM | 20 nM | 21% | – | – | – |
| Cc1cc(-c2ccc(C(=O)N[C@H](C(=O)N3C[C@H](Cl)[C@H]4OCC(=O)[C@H]43)C3CCCCC3)s2)c(C)cn1 [Example 88, N-((S)-2-((3aS,6S,6aS)-6-chloro-3-oxotetrahydro-2H-furo[3,2-b]pyrrol-4(5H)-yl)-1-cyclohexyl-2-oxoethyl)-5-(2,5-dimethylpyridin-4-yl)thiophene-2-carboxamide] | 18.6 | 335 nM | 18 nM | 0% | – | – | – |
| O=C(N[C@H](C(=O)N1C[C@H](Cl)[C@H]2OCC(=O)[C@H]21)C1CCCCC1)c1ccc(-c2ccncc2)s1 [Example 3, N-((S)-2-((3aS,6S,6aS)-6-chloro-3-oxotetrahydro-2H-furo[3,2-b]pyrrol-4(5H)-yl)-1-cyclohexyl-2-oxoethyl)-5-(pyridin-4-yl)thiophene-2-carboxamide] | 34.3 | – | 3 nM | 5% | 103 nM | – | – |
| O=C(N[C@H](C(=O)N1C[C@H](Cl)[C@H]2OCC(=O)[C@H]21)C1CCCCC1)c1ccc(-c2cccnn2)s1 [Example 6, N-((S)-2-((3aS,6S,6aS)-6-chloro-3-oxotetrahydro-2H-furo[3,2-b]pyrrol-4(5H)-yl)-1-cyclohexyl-2-oxoethyl)-5-(pyridazin-3-yl)thiophene-2-carboxamide] | 5.5 | 60 nM | 11 nM | 36% | – | – | – |
| O=C(N[C@H](C(=O)N1C[C@H](Cl)[C@H]2OCC(=O)[C@H]21)C1CCCCC1)c1ncc(-c2ccc(C(F)(F)F)nc2)s1 [Example 68, N-((S)-2-((3aS,6S,6aS)-6-chloro-3-oxotetrahydro-2H-furo[3,2-b]pyrrol-4(5H)-yl)-1-cyclohexyl-2-oxoethyl)-5-(6-(trifluoromethyl)pyridin-3-yl)thiazole-2-carboxamide] | 5.9 | 383 nM | 65 nM | 5% | – | – | – |
| Cc1cnnc(-c2ccc(C(=O)N[C@H](C(=O)N3C[C@H](Cl)[C@H]4OCC(=O)[C@H]43)C3CCCCC3)s2)c1 [Example 44, N-((S)-2-((3aS,6S,6aS)-6-chloro-3-oxotetrahydro-2H-furo[3,2-b]pyrrol-4(5H)-yl)-1-cyclohexyl-2-oxoethyl)-5-(5-methylpyridazin-3-yl)thiophene-2-carboxamide] | 4.7 | 70 nM | 15 nM | 33% | – | – | – |
| O=C(N[C@H](C(=O)N1C[C@H](Cl)[C@H]2OCC(=O)[C@H]21)C1CCCCC1)c1ccc(-c2cnccn2)s1 [Example 4, N-((S)-2-((3aS,6S,6aS)-6-chloro-3-oxotetrahydro-2H-furo[3,2-b]pyrrol-4(5H)-yl)-1-cyclohexyl-2-oxoethyl)-5-(pyrazin-2-yl)thiophene-2-carboxamide] | 13.1 | – | 14 nM | 17% | 184 nM | – | – |
| O=C(N[C@H](C(=O)N1C[C@H](Cl)[C@H]2OCC(=O)[C@H]21)C1CCCCC1)c1sc(-c2cccnc2)nc1C(F)(F)F [Example 23, N-((S)-2-((3aS,6S,6aS)-6-chloro-3-oxotetrahydro-2H-furo[3,2-b]pyrrol-4(5H)-yl)-1-cyclohexyl-2-oxoethyl)-2-(pyridin-3-yl)-4-(trifluoromethyl)thiazole-5-carboxamide] | – | – | – | 0% | – | 60% | 52% |
| O=C(N[C@H](C(=O)N1C[C@H](Cl)[C@H]2OCC(=O)[C@H]21)C1CCCCC1)c1ccc(-c2cnc(C3CC3)nc2)s1 [Example 55, N-((S)-2-((3aS,6S,6aS)-6-chloro-3-oxotetrahydro-2H-furo[3,2-b]pyrrol-4(5H)-yl)-1-cyclohexyl-2-oxoethyl)-5-(2-cyclopropylpyrimidin-5-yl)thiophene-2-carboxamide] | 2.4 | 70 nM | 29 nM | 13% | – | – | – |
| CCc1cc(-c2ccc(C(=O)N[C@H](C(=O)N3C[C@H](Cl)[C@H]4OCC(=O)[C@H]43)C3CCCCC3)s2)ccn1 [Example 86, N-((S)-2-((3aS,6S,6aS)-6-chloro-3-oxotetrahydro-2H-furo[3,2-b]pyrrol-4(5H)-yl)-1-cyclohexyl-2-oxoethyl)-5-(2-ethylpyridin-4-yl)thiophene-2-carboxamide] | 16.7 | 24 nM | 1 nM | 25% | – | – | – |
| O=C(N[C@H](C(=O)N1C[C@H](Cl)[C@H]2OCC(=O)[C@H]21)C1CCCCC1)c1ccc(-c2cccnc2)s1 [Example 2, N-((S)-2-((3aS,6S,6aS)-6-chloro-3-oxotetrahydro-2H-furo[3,2-b]pyrrol-4(5H)-yl)-1-cyclohexyl-2-oxoethyl)-5-(pyridin-3-yl)thiophene-2-carboxamide] | 23.0 | – | 5 nM | 10% | 115 nM | – | – |
